{"source": "patent US11946028B2", "about": "“Fibrosis model on a chip” (The Trustees of the University of Pennsylvania, priority 2015, dated 2024)", "tested_on": "human lung fibroblasts", "assay": "Serum-induced fibrosis in biomimetic five-layer lung fibrosis model", "assay_type": "cell-based", "details": "2 μM PP2 added to medium 24 hours after assembly, maintained for the study; 0.2% serum in the model; FIG. 20", "excerpt": "The first and second channel slabs and the chamber slab of the model were formed using soft lithography techniques, in which the PDMS mixture was poured over the mold, and the slabs were allowed to cure. The microchannels were etched into each of the channel slabs, with the dimensions of 10 mm×1 mm×0.15 mm (length×width×height). The chamber was etched into the chamber slab, with the dimensions of 6 mm×3 mm×1 mm (length×width×height). See FIG. 9 for a picture of the five-layer model and FIG. 2A-2B for a schematic of the five-layer model.\nNext, the cellular physiology of the cell-lined fluidic channels with the gel layer of the five-layer model was examined (FIG. 11). In this instance, the upper channel contained human lung endothelial cells cultured with commercially available medium from the supplying vendor of the cells. The lower channel contained small airway epithelial cells with similar specific medium, both from same vendor. The gel was created by adding collagen to physiological aqueous buffer at a concentration of 2 mg/ml and kept at 4° C. Human lung fibroblasts (100 K cells/ml) were added to the gel during the liquid phase. The side of the membranes facing the chamber slab were treated with sulfo-sanpah to promote collagen/ECM anchorage. The lower channel slab, lower membrane, and chamber slab were stacked. The gel was then pipetted into the chamber. […]", "data": [{"smiles": "CC(C)(C)n1nc(-c2ccc(Cl)cc2)c2c(N)ncnc21", "note": "[PP2]", "values": [{"measurement": "effect on serum-induced fibrosis", "value": "reduced fibrosis"}]}]}
